Key:
[1] = Experimental log P, shake-flask method; type: physicochemical; conditions: n-octanol/phosphate buffer pH 7.4, read-out: Exp. Log P
Experimental: Partition coefficients or experimental log P values of all synthesized compounds (9–23, 30 and 31) were calculated using the shake-flask method. Log P values were determined using n-octanol and phosphate buffer (pH = 7.4) at 10:1 ratio of volumes. Stock solutions (10^−3 M) of compounds were prepared in DMSO. Glass vials were used to make final solutions i.e. stock solution (250 µL) and phosphate buffer (125 µL). To record the absorbance, wavelength was selected based on λmax of the respective compound. Initial absorbance (Ai) for every compound was noted consuming the stock solution in the buffer phase. Now added n-octanol to every vial and shaken well using a mechanical shaker for 50 minutes. To get separation of both phases, glass vials were centrifuged for 35 min. at 2500 rpm. Then, the layer of octanol was separated from glass vial. The final absorbance (Af) of each compound was recorded by using the buffer layer. The values of P for compounds were determined by the following equation (Eq. 8):8 P=Ai−Af/Af×Vw/Vo

melting point: 201 to 203 °C
logP [1]: 0.23
Compound: O=Cc1ccc(-c2cn3ccnc3c(-c3ccc4c(c3)ncn4C3CCCCC3)n2)cc1 [Compound 11, 4-(8-(1-cyclohexyl-1H-benzo[d]imidazol-5-yl)imidazo[1,2-a]pyrazin-6-yl)benzaldehyde]
